Measurements reported in patent publication US20120208781A1, “AMINOGLYCOSIDE DOSING REGIMENS” (Achaogen, Inc., priority 2009, published 2012).
Converted amounts (≈) assume the structure as drawn. Read-outs that look alike come from different tables or passages of the source.

Columns and labels:
E. coli = test: MIC, further Brooklyn patient isolates: E. coli; type: cell-based; design: unit not given beside the values; conditions: E. coli (n = 3071)
Experimental: (§1) Minimum inhibitory concentrations (MIC) were determined by reference Clinical and Laboratory Standards Institute (CLSI) broth microdilution methods per M7-A7 [2006]. Briefly, serial two-fold dilutions of Compound 1 and comparator AGs (together, “the test compounds”) were prepared at 2× concentration in appropriate diluent. The dilutions were mixed in 96-well assay plates with bacterial inoculum. Bacteria were suspended in sterile saline and added to each assay plate to obtain a final concentration of 5.5×10^5 CFU/mL. The plates were incubated at 35° C. for 20 hours in ambient air. […] After incubation, assay plates were read using a microtiter plate reader at 600 nm.
(§2) Further studies analyzed a greater number of unique patient isolates obtained from Brooklyn, N.Y. hospitals (including those species described above). These species included Acinetobacter, E. coli, Enterobacter, Klebsiella, and Pseudomonas.

Enterobacter = test: MIC, further Brooklyn patient isolates: Enterobacter; type: cell-based; design: unit not given beside the values; conditions: Enterobacter (n = 206)
Experimental: as §1, §2

rat kidney = test: Rat nephrotoxicity model: kidney histopathology (H&E); type: in vivo, Sprague-Dawley rats; conditions: rats, 14 d once-daily
Experimental: This rat nephrotoxicity study design used 14 days of once-daily dosing of aminoglycosides in adult Sprague-Dawley rats. Rats were allowed full access to food and water, and aminoglycosides were dosed subcutaneously at 1 mL/kg dosing volume, formulated in water. Nephrotoxicity was assessed by monitoring changes in serum markers of glomerular filtration rate (GFR), namely blood urea nitrogen (BUN) and serum creatinine. Microscopic examination of kidney slices after fixation and hematoxylin and eosin (H&E) staining was also utilized, scoring for tubular dilation, cellular casts, interstitial inflammation, and regenerative changes to the tubules.

[1] = rat, in vivo
Experimental: The AGs were administered to the rats according to the dose levels depicted in Table 6. The animals of Groups 11-13 were housed until day 15 even though their dosing ended on day 5, such that all animals were necropsied on the same day. Blood was collected in EDTA at days 0, 6, 11, and 15. 750 uL blood samples were collected and aliquoted into a lithium heparin tube and an EDTA tube. Clinical chemistry analysis was performed using the Idexx VETTEST 8008 system. Kidney samples were embedded in paraffin, sectioned, stained with hematoxylin and eosin and examined microscopically.

P. aeruginosa (PA) = test: MIC, broth microdilution, Brooklyn hospital isolates: P. aeruginosa; type: cell-based; conditions: PA (n = 33)
Experimental: (§3) In another study, the activity of Compound 1 against a collection of contemporary Gram-negative bacteria was determined. Unique patient isolates of P. aeruginosa (PA), A. baumannii (AB), K. pneumoniae (KP), E. coli (EC), and Enterobacter spp. (EB) from prior surveys at 16 Brooklyn, N.Y. hospitals were selected based on resistance patterns. The majority of isolates were fingerprinted by automated ribotyping. MICs were performed by broth microdilution. PCR was used to identify aminoglycoside-modifying enzymes (AMEs) in AB and KP and the KPC gene in Enterobacteriaceae (EN). The expression of the efflux genes mexA, C, E and X in PA, and adeB in AB was assessed by real-time RT-PCR.

A. baumannii (AB) = test: MIC, broth microdilution, Brooklyn hospital isolates: A. baumannii; type: cell-based; conditions: AB (n = 38)
Experimental: as §3

K. pneumoniae (KP) = test: MIC, broth microdilution, Brooklyn hospital isolates: K. pneumoniae; type: cell-based; conditions: KP (n = 71)
Experimental: as §3

E. coli (EC) = test: MIC, broth microdilution, Brooklyn hospital isolates: E. coli; type: cell-based; conditions: EC (n = 32)
Experimental: as §3

Enterobacter spp. (EB) = test: MIC, broth microdilution, Brooklyn hospital isolates: Enterobacter spp.; type: cell-based; conditions: EB (n = 30)
Experimental: as §3

CO/N=C(\C(=O)N[C@@H]1C(=O)N2C(C(=O)O)=C(CSc3nc(=O)c(O)nn3C)CS[C@H]12)c1csc(N)n1 [CRO]
MIC50 (E. coli): ≦0.25
MIC50 (Enterobacter): ≦0.25

NC[C@H]1O[C@H](O[C@H]2[C@H](O)[C@@H](O[C@H]3O[C@H](CO)[C@@H](O)[C@H](N)[C@H]3O)[C@H](N)C[C@@H]2N)[C@H](N)C[C@@H]1O [Tobramycin, tobramycin]
Histopathology score (0 to 5 Scale): Casts (rat kidney; 10 mg/kg): 0 +/− 0
Histopathology score (0 to 5 Scale): Dilation (rat kidney; 10 mg/kg): 0.4 +/− 0.9
Histopathology score (0 to 5 Scale): Inflammation (rat kidney; 10 mg/kg): 0.4 +/− 0.9
Histopathology score (0 to 5 Scale): Regeneration (rat kidney; 10 mg/kg): 1 +/− 1.4
Histopathology score (0 to 5 Scale): Casts (rat kidney; 30 mg/kg): 0.8 +/− 0.4
Histopathology score (0 to 5 Scale): Dilation (rat kidney; 30 mg/kg): 1.6 +/− 1.1
Histopathology score (0 to 5 Scale): Inflammation (rat kidney; 30 mg/kg): 1.8 +/− 0.8
Histopathology score (0 to 5 Scale): Regeneration (rat kidney; 30 mg/kg): 2.2 +/− 0.8
Histopathology score (0 to 5 Scale): Casts (rat kidney; 100 mg/kg): 1.8 +/− 0.8
Histopathology score (0 to 5 Scale): Dilation (rat kidney; 100 mg/kg): 1.6 +/− 1.1
Histopathology score (0 to 5 Scale): Inflammation (rat kidney; 100 mg/kg): 2.4 +/− 0.9
Histopathology score (0 to 5 Scale): Regeneration (rat kidney; 100 mg/kg): 3 +/− 0.7
ALB, day 6 ([1]; 10 mg/kg): 4.0 g/dL
ALP, day 6 ([1]; 10 mg/kg): 670 U/L
ALT ([1]; 10 mg/kg): 41
ALT, day 6 ([1]; 10 mg/kg): 29 U/L
AMYL, day 6 ([1]; 10 mg/kg): 1719 U/L
AST, day 6 ([1]; 10 mg/kg): 65 U/L
BUN, day 6 ([1]; 10 mg/kg): 16 mg/dL
Body weight Day 1 ([1]; 10 mg/kg): 243 g
Body weight Day 2 ([1]; 10 mg/kg): 256 g
Body weight Day 3 ([1]; 10 mg/kg): 264 g
Body weight Day 4 ([1]; 10 mg/kg): 277 g
Body weight Day 5 ([1]; 10 mg/kg): 271 g
Body weight Day 6 ([1]; 10 mg/kg): 291 g
Body weight Day 7 ([1]; 10 mg/kg): 299 g
Body weight Day 8 ([1]; 10 mg/kg): 307 g
Body weight Day 9 ([1]; 10 mg/kg): 315 g
Body weight Day 10 ([1]; 10 mg/kg): 327 g
Body weight Day 11 ([1]; 10 mg/kg): 333 g
Body weight Day 12 ([1]; 10 mg/kg): 330 g
Body weight Day 13 ([1]; 10 mg/kg): 347 g
Body weight Day 14 ([1]; 10 mg/kg): 352 g
CHOL, day 6 ([1]; 10 mg/kg): 78 mg/dL
Cre, day 6 ([1]; 10 mg/kg): 0.8 mg/dL
GLOB, day 6 ([1]; 10 mg/kg): 1.8 g/dL
GLU, day 6 ([1]; 10 mg/kg): 154 mg/dL
T-PRO, day 6 ([1]; 10 mg/kg): 5.9 g/dL
TBIL ([1]; 10 mg/kg): 0.1
TBIL, day 6 ([1]; 10 mg/kg): 0.1 mg/dL
ALB, day 6 ([1]; 30 mg/kg): 4.0 g/dL
ALP, day 6 ([1]; 30 mg/kg): 583 U/L
ALT, day 6 ([1]; 30 mg/kg): 32 U/L
AMYL, day 6 ([1]; 30 mg/kg): 1658 U/L
AST, day 6 ([1]; 30 mg/kg): 65 U/L
BUN, day 6 ([1]; 30 mg/kg): 15 mg/dL
Body weight Day 1 ([1]; 30 mg/kg): 250 g
Body weight Day 2 ([1]; 30 mg/kg): 256 g
Body weight Day 3 ([1]; 30 mg/kg): 264 g
Body weight Day 4 ([1]; 30 mg/kg): 270 g
Body weight Day 5 ([1]; 30 mg/kg): 280 g
Body weight Day 6 ([1]; 30 mg/kg): 288 g
Body weight Day 7 ([1]; 30 mg/kg): 294 g
Body weight Day 8 ([1]; 30 mg/kg): 295 g
Body weight Day 9 ([1]; 30 mg/kg): 307 g
Body weight Day 10 ([1]; 30 mg/kg): 318 g
Body weight Day 11 ([1]; 30 mg/kg): 323 g
Body weight Day 12 ([1]; 30 mg/kg): 321 g
Body weight Day 13 ([1]; 30 mg/kg): 321 g
Body weight Day 14 ([1]; 30 mg/kg): 330 g
CA ([1]; 30 mg/kg): 11.2
CHOL, day 6 ([1]; 30 mg/kg): 81 mg/dL
Cre, day 6 ([1]; 30 mg/kg): 0.7 mg/dL
GLOB, day 6 ([1]; 30 mg/kg): 1.8 g/dL
GLU, day 6 ([1]; 30 mg/kg): 155 mg/dL
Organ weights Heart ([1]; 30 mg/kg): 1.44
Organ weights Kidney Rt. ([1]; 30 mg/kg): 2.1
Organ weights Liver ([1]; 30 mg/kg): 11.3
Organ weights Lung ([1]; 30 mg/kg): 2.96
Organ weights Pancreas ([1]; 30 mg/kg): 0.85
Organ weights testes ([1]; 30 mg/kg): 3.45
T-PRO, day 6 ([1]; 30 mg/kg): 5.8 g/dL
TBIL ([1]; 30 mg/kg): 0.1
TBIL, day 6 ([1]; 30 mg/kg): 0.1 mg/dL
ALB, day 6 ([1]; 100 mg/kg): 4.0 g/dL
ALP, day 6 ([1]; 100 mg/kg): 596 U/L
ALT, day 6 ([1]; 100 mg/kg): 36 U/L
AMYL, day 6 ([1]; 100 mg/kg): 1560 U/L
AST, day 6 ([1]; 100 mg/kg): 75 U/L
BUN, day 6 ([1]; 100 mg/kg): 19 mg/dL
Body weight Day 1 ([1]; 100 mg/kg): 246 g
Body weight Day 2 ([1]; 100 mg/kg): 251 g
Body weight Day 3 ([1]; 100 mg/kg): 259 g
Body weight Day 4 ([1]; 100 mg/kg): 264 g
Body weight Day 5 ([1]; 100 mg/kg): 268 g
Body weight Day 6 ([1]; 100 mg/kg): 277 g
Body weight Day 7 ([1]; 100 mg/kg): 281 g
Body weight Day 8 ([1]; 100 mg/kg): 287 g
Body weight Day 9 ([1]; 100 mg/kg): 280 g
Body weight Day 10 ([1]; 100 mg/kg): 293 g
Body weight Day 11 ([1]; 100 mg/kg): 296 g
Body weight Day 12 ([1]; 100 mg/kg): 283 g
Body weight Day 13 ([1]; 100 mg/kg): 296 g
Body weight Day 14 ([1]; 100 mg/kg): 299 g
CA, day 6 ([1]; 100 mg/kg): 10.8 mg/dL
CHOL, day 6 ([1]; 100 mg/kg): 82 mg/dL
Cre ([1]; 100 mg/kg): 0.8
Cre, day 6 ([1]; 100 mg/kg): 0.7 mg/dL
GLOB, day 6 ([1]; 100 mg/kg): 1.6 g/dL
GLU, day 6 ([1]; 100 mg/kg): 148 mg/dL
T-PRO, day 6 ([1]; 100 mg/kg): 5.6 g/dL
TBIL ([1]; 100 mg/kg): 0.1
TBIL, day 6 ([1]; 100 mg/kg): 0.1 mg/dL

C[C@@H](O)[C@H]1C(=O)N2C(C(=O)O)=C(SCCN=CN)C[C@H]12 [Imipenem]
Susceptible (P. aeruginosa (PA)): 55%
MIC50 (P. aeruginosa (PA); Pseudomonas aeruginosa): 4 µg/mL (≈ 13.4 µM)
MIC90 (P. aeruginosa (PA); Pseudomonas aeruginosa): > 8 µg/mL
Susceptible (A. baumannii (AB)): 55%
MIC50 (A. baumannii (AB); Acinetobacter baumannii): 4 µg/mL (≈ 13.4 µM)
MIC90 (A. baumannii (AB); Acinetobacter baumannii): > 8 µg/mL
Susceptible (K. pneumoniae (KP)): 79%
MIC50 (K. pneumoniae (KP); Klebsiella pneumoniae): 0.25 µg/mL (≈ 0.835 µM)
MIC90 (K. pneumoniae (KP); Klebsiella pneumoniae): > 8 µg/mL
Susceptible (E. coli (EC)): 91%
MIC50 (E. coli (EC); Escherichia coli): 0.125 µg/mL (≈ 0.418 µM)
MIC90 (E. coli (EC); Escherichia coli): 4 µg/mL (≈ 13.4 µM)
Susceptible (Enterobacter spp. (EB)): 93%
MIC50 (Enterobacter spp. (EB); Enterobacter): 0.5 µg/mL (≈ 1.67 µM)
MIC90 (Enterobacter spp. (EB); Enterobacter): 2 µg/mL (≈ 6.68 µM)
